Patent US20250000879A1, “PHARMACEUTICAL COMPOSITION FOR PREVENTING DIABETES AND USE THEREOF” (HANYI BIO-TECHNOLOGY (BEIJING) CO., LTD., priority 2018, published 2025)

How the values were obtained:
[1] = test system: mouse model of chronic renal failure induced by adriamycin; experiment: Urinary total protein in mice with chronic renal failure induced by adriamycin; type: in vivo; settings: CBD 50 mg/kg by gavage once a day; urine on the 14th day of nephropathy induction; FIG. 7
Experimental: A mouse model of chronic renal failure induced by adriamycin was constructed according to a conventional method of inducing kidney injury. After CBD treatment for 14 days, urinary total protein level was measured. The specific method is as follows: Kunming white male mice aged 4-6 weeks were used as experimental animals. After the mice were fasted for 10-12 hours, they were injected with 50 mg/kg of streptozotocin (STZ) intraperitoneally for 5 consecutive days. […] On the 7th day after diabetes induction, the mice in the nephropathy group were injected with adriamycin at 10 mg/kg by caudal vein. The mice were applied to the Group 3 to 6 in the following step 2). The experimental animals were randomly divided into 6 groups with 10 animals in each group: • Group 1: control group, fed with normal saline; • Group 2: diabetes group; • Group 3: diabetes+CBD group; given CBD by gavage, 50 mg/kg, once a day; • Group 4: diabetes+adriamycin group; • Group 5: diabetes+adriamycin+CBD group; given CBD by gavage, 50 mg/kg, once a day; and • Group 6: diabetes+adriamycin+metformin group; given metformin by gavage, 50 mg/kg, once a day. After successfully inducing the mouse diabetes model, the mice were injected with adriamycin through caudal vein to induce nephropathy model. Urine was collected from the mice on the 14th day of the induction of nephropathy model, and urinary total protein was detected.

[2] = test system: mouse model of type 1 diabetes; experiment: Glucose tolerance test (GTT) in STZ-induced mouse model of type 1 diabetes; type: in vivo, mice; settings: FIG. 1B
Experimental: (§1) C57 male mice aged 4-6 weeks were used as experimental animals. After the mice were fasted for 10-12 hours, they were injected with 50 mg/kg of streptozotocin (STZ) intraperitoneally for 5 consecutive days. Fasting blood glucose levels of mice on the 6th and 10th days were measured to determine whether the induction was successful (the induction was considered successful when fasting blood glucose was greater than 11.1 mmol/L). The mice were applied to Group 2 to 6 in the following step 2). […]
(§2) Fasting blood glucose of mice in each group was detected every other three to four weeks; after one month of administration (the model was stable), a glucose tolerance test (GTT) was carried out. […] The blood glucose of the mice before injection (0 min) and at 15 min, 30 min, 60 min and 120 min after injection were measured respectively.

[3] = test system: mouse model of type 2 diabetes; experiment: Insulin tolerance test (ITT) in STZ and high-fat feed mouse model of type 2 diabetes; type: in vivo, mice; settings: CBD 50 mg/kg by gavage once a day; one month after administration; FIG. 2C
Experimental: (§3) C57 male mice aged 4-6 weeks were used as experimental animals. The mice were fed with high-fat feed. After the mice were fasted for 10-12 hours, they were injected with 50 mg/kg of streptozotocin (STZ) intraperitoneally for 5 consecutive days. […] The mice were applied to Group 2 to 8 in the following step 2).
(§4) High-fat feed was formed by adding 60% fat to normal feed.

[4] = test system: patients with type 2 diabetes; experiment: Fasting blood glucose and glycosylated hemoglobin in diabetic volunteers; type: in vivo, human; settings: oral CBD 300 mg/day, after 8 weeks, three patients
Experimental: Every patient received oral CBD treatment at 300 mg/day for 8 weeks. Fasting blood glucose was measured at the 0th, 4th and 8th weeks. Glycosylated hemoglobin value was measured at the 0th and 8th weeks. The results are shown in FIG. 8A and FIG. 8B, respectively.

[5] = test system: mouse lactic acidosis model; experiment: Blood lactic acid concentration in mouse lactic acidosis model induced by metformin; type: in vivo, mice; settings: FIG. 5
Experimental: ICR male mice aged 4-6 weeks were used as experimental animals. The mice were administrated by gavage with metformin (260 mg/kg) for induction for three times, with an interval of 12 hours.
The mice were randomly divided into seven groups with five mice in each group: • Group 1: control group, no treatment; • Group 2: given water by gavage every day; • Group 3: given CBD by gavage once a day, 50 mg/kg; • Group 4: given 260 mg/kg of metformin by gavage in the morning and evening on the first day, and 260 mg/kg of metformin by gavage in the next morning, and sampled at […] in the next day; • Group 5: given 260 mg/kg of metformin by gavage in the morning and evening on the first day, and 260 mg/kg of metformin by gavage in the next morning, given 50 mg/kg of CBD at the same time metformin was given by gavage, and sampled at […] in the next day. • Group 6: injected with 260 mg/kg of metformin by caudal vein every other one hour for four times, and sampled one hour after the fourth injection; and • Group 7: given 50 mg/kg of CBD by gavage half an hour before caudal vein injection, injected with 260 mg/kg of metformin by caudal vein half an hour later, once every other hour, four times in total, and sampled one hour after the fourth injection. […]

[6] = test system: mouse model of type 2 diabetes; experiment: Fasting blood glucose in STZ and high-fat feed mouse model of type 2 diabetes; type: in vivo, mice
Experimental: as §3, §4

[7] = test system: mouse model of type 2 diabetes; experiment: Glucose tolerance test (GTT) in STZ and high-fat feed mouse model of type 2 diabetes; type: in vivo, mice; settings: CBD 50 mg/kg by gavage once a day; one month after administration; FIG. 2B
Experimental: C57 male mice aged 4-6 weeks were used as experimental animals. The mice were fed with high-fat feed. After the mice were fasted for 10-12 hours, they were injected with 50 mg/kg of streptozotocin (STZ) intraperitoneally for 5 consecutive days. […] The mice were applied to Group 2 to 8 in the following step 2). High-fat feed was formed by adding 60% fat to normal feed. […] One month after administration (after the type 2 diabetes model was stabilized,), a glucose tolerance test (GTT) was carried out. The mice were fasted for 10 hours, and injected with 20% (w/w) glucose was intraperitoneally according to their body weights (10 μl/g).

[8] = test system: DB/DB mice (spontaneous type 2 diabetic mice); experiment: Blood glucose of DB/DB mice after administration treatment; type: in vivo; settings: CBD alone 50 mg/kg, intragastric, once a day
Experimental: In order to study the effect of combined use of CBD and metformin, adult DB/DB mice (spontaneous type 2 diabetic mice, purchased from Model Animal Center of Nanjing University) were randomly divided into 5 groups, with 6 mice in each group: • Group 1: control group, no treatment; • Group 2: CBD alone administration group (50 mg/kg); • Group 3: low-dose metformin group (100 mg/kg, calculated by referring to the lowest dose for human, and the dose for mice=9.1×the dose for human); • Group 4: low-dose metformin (100 mg/kg)+CBD (50 mg/kg) group; and • Group 5: high-dose metformin group (250 mg/kg, calculated by referring to the lowest dose for human, and the dose for mice=9.1×the dose for human).
Group 3 and Group 5 were both positive control groups of the treatment group, Group 3 was low-dose metformin group, and Group 5 was high-dose metformin group.
The administration routes of the above five groups were all intragastric administration, once a day
After 4 weeks of administration, blood glucose of mice in each group was measured.

[9] = test system: mouse model of type 1 diabetes; experiment: Insulin tolerance test (ITT) in STZ-induced mouse model of type 1 diabetes; type: in vivo, mice; settings: FIG. 1C
Experimental: as §1
One week after GTT, an insulin tolerance test (ITT) was carried out. […] The blood glucose of the mice before injection (0 min) and at 15 min, 30 min, 60 min and 120 min after injection were measured respectively.

[10] = test system: mouse model of type 1 diabetes; experiment: Fasting blood glucose in STZ-induced mouse model of type 1 diabetes; type: in vivo, mice; settings: FIG. 1A; for fasting blood glucose: after 10 days
Experimental: C57 male mice aged 4-6 weeks were used as experimental animals. After the mice were fasted for 10-12 hours, they were injected with 50 mg/kg of streptozotocin (STZ) intraperitoneally for 5 consecutive days. Fasting blood glucose levels of mice on the 6th and 10th days were measured to determine whether the induction was successful (the induction was considered successful when fasting blood glucose was greater than 11.1 mmol/L). The mice were applied to Group 2 to 6 in the following step 2).
The mice were randomly divided into 6 groups with 10 mice in each group: • Group 1: blank control group, fed with normal feed and intraperitoneally injected with a buffer solution at a dose of 100 μl/mouse, once a day for 5 consecutive days; • wherein, the buffer solution was a citric acid buffer solution with a concentration of 0.1 mol/L and pH of 4.2 and was sterilized by suction filtration. • Group 2: diabetes model group, fed with normal feed and intraperitoneally injected with streptozotocin; • Group 3: CBD prevention group, fed with normal feed, intraperitoneally injected with streptozotocin, and given CBD by gavage from the first day of induction, 50 mg/kg, once a day; • Group 4: CBD treatment group, fed with normal feed, intraperitoneally injected with streptozotocin, and given CBD by gavage after successful induction, 50 mg/kg, once a day; • Group 5: positive drug control group, fed with normal feed, intraperitoneally injected with streptozotocin, and injected with insulin after successful induction, 0.2 U/kg, once a day; and • Group 6: metformin group, fed with normal feed, intraperitoneally injected with streptozotocin, and given metformin by gavage after successful induction, 50 mg/kg, once a day.
as §2

mouse diarrhea model = experiment: Diarrhea index in mouse diarrhea model induced by Folium Sennae; type: in vivo, mice; settings: days 1-7, FIG. 4A to 4G
Experimental: ICR female mice of 4-6 weeks old were used as experimental animals. The mice ate and drank normally, and were given 8% (w/w) Folium Sennae solution by gavage, 0.2 ml/mouse. Diarrhea index of the mice was counted every other one and a half hours for 6 hours. Folium Sennae was purchased from Tongrentang Pharmacy in Beijing. The 8% (w/w) Folium Sennae solution was prepared by boiling 8 parts by weight of Folium Sennae and 92 parts by weight of water in a conical flask for 10 min.
The mice were randomly divided into 7 groups with 10 mice in each group: • Group 1: the mice were given the same volume of water by gavage every day; • Group 2: the mice were given 150 mg/kg of metformin by gavage every day; • Group 3: the mice were given 50 mg/kg of CBD by gavage every day; • Group 4: the mice were given 8% Folium Sennae solution by gavage every day; • Group 5: the mice were given a mixed solution of 8% Folium Sennae solution and 150 mg/kg of metformin by gavage every day; • Group 6: the mice were given a mixed solution of 8% Folium Sennae solution and 50 mg/kg of CBD by gavage every day; and • Group 7: the mice were given a mixed solution of 8% Folium Sennae solution, 150 mg/kg of metformin and 50 mg/kg of CBD by gavage every day.
Every day after gavage, the diarrhea index of each mouse was counted every other one and a half hours, 4 times in total […].
Diarrhea index=loose stool rate*loose stool grade
• Diarrhea rate: the number of animals with loose stools in this group/the total number of animals in this group*100%; • Loose stool rate: the number of loose stools per animal/the total number of stools; and • Loose stool grade: the hardness of loose stool graded according to the size of stains on filter paper with loose stool, as shown in Table 1 below.

[11] = test system: diabetes model mice fed with high-fat feed; experiment: Serum lipid and insulin levels in mice induced by STZ and high-fat feed; type: in vivo; settings: metformin alone, 100 or 250 mg/kg by gavage once a day; two months of treatment; FIG. 6E
Experimental: After the mice were fasted for 10-12 hours, they were injected with 50 mg/kg of streptozotocin (STZ) intraperitoneally for 5 consecutive days.

C=C(C)[C@@H]1CCC(C)=C[C@H]1c1c(O)cc(CCCCC)cc1O [CBD, Cannabidiol]
urinary total protein level [1]: significantly reduce urinary total protein level
GTT, CBD prevention group compared with CBD treatment group ([2]; 50 mg/kg by gavage once a day): the CBD prevention group had a better effect than the CBD treatment group
glucose tolerance test (GTT), regulation of glucose ([2]; CBD 50 mg/kg by gavage once a day, after one month of administration): significantly enhance regulation of glucose in the mice
insulin tolerance test (ITT), sensitivity to insulin [3]: improve sensitivity of the mice to insulin
fasting blood glucose ([4]; FIG. 8A): decreased significantly
glycosylated hemoglobin ([4]; FIG. 8B): improved significantly
lactic acid concentration in blood ([5]; CBD 50 mg/kg by gavage with metformin 260 mg/kg (gavage or caudal vein)): significantly inhibit the increase of lactic acid in blood induced by metformin
CBD prevention group compared with CBD treatment group (fasting blood glucose, GTT, ITT) ([6]; 50 mg/kg by gavage once a day, FIG. 2A to FIG. 2C): the CBD prevention group had a better effect than the CBD treatment group
fasting blood glucose ([6]; CBD 50 mg/kg by gavage once a day, FIG. 2A): significantly reduce the blood glucose elevation induced by STZ and high-fat feed
glucose tolerance test (GTT), regulation of glucose [7]: improve regulation of glucose in the mice induced by STZ and high-fat feed
blood glucose [8]: reduce blood glucose
ITT, CBD prevention group compared with CBD treatment group ([9]; 50 mg/kg by gavage once a day): the CBD prevention group had a better effect than the CBD treatment group
insulin tolerance test (ITT), sensitivity to insulin ([9]; CBD 50 mg/kg by gavage once a day, one week after GTT): significantly enhance sensitivity of the mice to insulin
fasting blood glucose, CBD prevention group compared with CBD treatment group ([10]; 50 mg/kg by gavage once a day): the CBD prevention group had a better effect than the CBD treatment group
fasting blood glucose ([10]; CBD prevention group: 50 mg/kg by gavage once a day from the first day of STZ induction): significantly reduce the blood glucose increase caused by STZ
fasting blood glucose ([10]; CBD treatment group: 50 mg/kg by gavage once a day after successful induction): significantly reduce the blood glucose increase caused by STZ
diarrhea index, diarrhea induced and aggravated by metformin (mouse diarrhea model; CBD 50 mg/kg with 8% Folium Sennae solution and 150 mg/kg metformin by gavage every day): significantly alleviate
diarrhea index, diarrhea induced by Folium Sennae (mouse diarrhea model; CBD 50 mg/kg with 8% Folium Sennae solution by gavage every day): significantly alleviate

CN(C)C(=N)N=C(N)N [metformin, Metformin, reference compound]
insulin level in serum (insulin secretion) [11]: could not increase insulin secretion
lactic acid concentration in blood ([5]; metformin 260 mg/kg, by gavage three times or by caudal vein four times): induce lactic acidemia
diarrhea index (mouse diarrhea model; metformin 150 mg/kg with 8% Folium Sennae solution by gavage every day): aggravate diarrhea induced by Folium Sennae
